Measured values reported in US20250314586A1, “SYSTEMS AND METHODS FOR HIGH THROUGHPUT SINGLE MOLECULE TRACKING IN LIVING CELLS” (EIKON THERAPEUTICS, INC., priority 2022, published 2025).
Entries after “also recorded” stand apart in the source; their conditions may differ. Read-outs that look alike come from different tables or passages of the source.

Columns and labels:
Estrogen Receptor (ER) [1] = target: T1, Estrogen Receptor (ER) (Homo sapiens, UniProt P03372); experiment: htSMT of Halo-ER in U2OS cells (fbound, Dfree); type: cell-based; conditions: for effect of pathway inhibitors on ER fbound / ER movement: retest and dose titration of pathway inhibitors
T1 construct: expressed in transfected cells; host or cells: U2OS
T1 sequence (P03372 1-595): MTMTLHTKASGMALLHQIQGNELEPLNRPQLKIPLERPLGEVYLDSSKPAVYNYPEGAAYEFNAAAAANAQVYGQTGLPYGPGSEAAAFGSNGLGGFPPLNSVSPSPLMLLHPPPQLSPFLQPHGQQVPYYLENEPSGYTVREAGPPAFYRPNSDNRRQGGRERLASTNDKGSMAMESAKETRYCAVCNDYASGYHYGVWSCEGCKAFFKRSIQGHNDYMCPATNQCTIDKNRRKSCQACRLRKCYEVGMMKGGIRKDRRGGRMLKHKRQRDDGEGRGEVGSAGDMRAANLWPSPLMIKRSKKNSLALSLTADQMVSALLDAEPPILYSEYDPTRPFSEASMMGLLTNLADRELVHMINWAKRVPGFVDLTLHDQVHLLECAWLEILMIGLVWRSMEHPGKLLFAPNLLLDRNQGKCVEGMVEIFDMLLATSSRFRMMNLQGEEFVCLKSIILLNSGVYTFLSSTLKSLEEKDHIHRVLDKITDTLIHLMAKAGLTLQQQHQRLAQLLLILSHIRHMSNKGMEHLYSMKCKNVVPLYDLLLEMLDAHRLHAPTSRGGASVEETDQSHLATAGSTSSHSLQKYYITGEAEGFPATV

[2] = target: T2, glucocorticoid receptor (GR) (Homo sapiens, UniProt P04150); experiment: htSMT of Halo-GR in U2OS cells; type: cell-based; conditions: 1 μM antagonist, singly or co-administered with cognate agonist
T2 construct: Because U2OS cells express GR endogenously, HaloTag was inserted right before the stop codon of endogenous NR3C1; endogenous in cells; host or cells: U2OS (CRISPR/Cas9 knock-in at the NR3C1 locus)
T2 sequence (P04150 1-777): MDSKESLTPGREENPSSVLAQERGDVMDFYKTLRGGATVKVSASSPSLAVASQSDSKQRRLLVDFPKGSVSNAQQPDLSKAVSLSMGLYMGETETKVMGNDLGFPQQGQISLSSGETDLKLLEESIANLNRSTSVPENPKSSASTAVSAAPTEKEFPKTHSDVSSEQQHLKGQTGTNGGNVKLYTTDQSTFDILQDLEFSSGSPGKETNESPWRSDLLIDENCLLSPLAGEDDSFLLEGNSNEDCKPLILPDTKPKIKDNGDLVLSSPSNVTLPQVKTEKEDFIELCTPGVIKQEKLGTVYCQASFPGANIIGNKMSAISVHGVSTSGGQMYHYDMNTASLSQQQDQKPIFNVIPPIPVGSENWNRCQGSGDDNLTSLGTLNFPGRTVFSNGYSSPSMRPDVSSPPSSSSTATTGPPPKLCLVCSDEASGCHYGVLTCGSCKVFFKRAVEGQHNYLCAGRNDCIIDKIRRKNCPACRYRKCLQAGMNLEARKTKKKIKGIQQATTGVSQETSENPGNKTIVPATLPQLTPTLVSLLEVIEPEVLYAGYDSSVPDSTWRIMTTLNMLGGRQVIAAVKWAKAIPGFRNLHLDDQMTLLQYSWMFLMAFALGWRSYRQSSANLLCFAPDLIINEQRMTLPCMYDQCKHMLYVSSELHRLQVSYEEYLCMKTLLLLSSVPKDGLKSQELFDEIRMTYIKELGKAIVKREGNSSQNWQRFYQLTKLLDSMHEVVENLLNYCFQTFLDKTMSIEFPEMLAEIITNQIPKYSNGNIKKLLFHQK
Description: Where appropriate, compounds were serially diluted in an Echo Qualified 384-Well Low Dead Volume Source Microplate (0018544, Beckman Coulter) to generate dose-titration source material.

androgen receptor (AR) = androgen receptor (AR) (Homo sapiens, UniProt P10275)
Estrogen Receptor (ER) [3] = target: T1, Estrogen Receptor (ER); experiment: kinetic SMT (kSMT) of ER after compound addition; type: cell-based; conditions: 100 nM compound
Estrogen Receptor (ER) [4] = target: T1, Estrogen Receptor (ER); experiment: residence time imaging of ER-Halo (track length survival); type: cell-based; conditions: 100 nM HSP90 inhibition, normalized to DMSO
ER = ER (Homo sapiens, UniProt P03372); experiment: Western blot of ER after compound treatment; type: cell-based; conditions: 100 nM fulvestrant, 24 hours; MCF7, T47d, U2OS Halo-ER
Protocol: Cells were grown in the same conditions as described previously. […] Cells are lysed in 200 μL 1× Cell Lysis Buffer (catalogue number 9803, Cell Signaling). Protein lysate concentration is then determined using BCA protein assay kit (Catalog number 23225, Pierce™ BCA Protein Assay Kit) following manufacturer instructions. Capillary Western Immunoassay were performed using Jess Protein Simple following manufacturer's instruction (protein simple, USA). Levels of αER (1:100, RM-9101) were normalized to loading control β-tubulin (1:100, NC0244815 LI-COR 92642213, Thermo Fisher). The peaks were analyzed with the Compass software (Protein Simple, USA).

Chain of androgen receptor (AR) (P10275 whole entry): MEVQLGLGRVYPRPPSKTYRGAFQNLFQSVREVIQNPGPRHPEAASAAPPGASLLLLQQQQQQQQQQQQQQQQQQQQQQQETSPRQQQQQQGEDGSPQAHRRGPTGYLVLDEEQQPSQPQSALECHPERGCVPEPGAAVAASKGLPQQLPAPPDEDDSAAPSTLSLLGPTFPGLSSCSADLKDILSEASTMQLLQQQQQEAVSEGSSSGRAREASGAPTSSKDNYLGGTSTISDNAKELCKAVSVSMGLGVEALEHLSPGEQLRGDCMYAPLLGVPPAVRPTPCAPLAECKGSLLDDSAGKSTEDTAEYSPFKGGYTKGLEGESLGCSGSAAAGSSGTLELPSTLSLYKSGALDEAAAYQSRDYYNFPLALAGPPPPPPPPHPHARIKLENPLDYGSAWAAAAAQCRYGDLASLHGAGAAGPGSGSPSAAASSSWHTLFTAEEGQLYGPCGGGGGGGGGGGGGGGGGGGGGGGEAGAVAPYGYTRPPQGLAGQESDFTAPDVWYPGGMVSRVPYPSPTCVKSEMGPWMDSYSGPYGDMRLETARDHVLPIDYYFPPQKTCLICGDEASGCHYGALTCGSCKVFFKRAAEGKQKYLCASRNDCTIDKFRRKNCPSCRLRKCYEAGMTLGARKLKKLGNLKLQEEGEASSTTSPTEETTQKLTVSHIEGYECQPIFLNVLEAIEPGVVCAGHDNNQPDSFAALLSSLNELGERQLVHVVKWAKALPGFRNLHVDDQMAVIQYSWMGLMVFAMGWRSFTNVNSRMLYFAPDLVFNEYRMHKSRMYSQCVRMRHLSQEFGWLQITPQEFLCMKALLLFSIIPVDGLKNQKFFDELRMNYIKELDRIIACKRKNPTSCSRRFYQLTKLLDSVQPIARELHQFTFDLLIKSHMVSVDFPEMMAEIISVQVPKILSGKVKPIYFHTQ

Row | Compound | effect of pathway inhibitors on ER fbound / ER movement (Estrogen Receptor (ER) [1]) | t1/2 of increase in ER fbound (Estrogen Receptor (ER) [3]) [min] | time at which overall effect on ER fbound reaches plateau (Estrogen Receptor (ER) [3]) | decrease in total number of long binding events (Estrogen Receptor (ER) [4]) | further results
1 | 4-hydroxytamoxifen |  |  |  |  | change in ER fbound, bioactive screen (Estrogen Receptor (ER) [1]): significantly increased fbound; maximal increase in ER fbound, compared with SERDs fulvestrant and GDC-0927 (Estrogen Receptor (ER) [1]): lower maximal increases in fbound
2 | CN(C)c1ccc(C(c2ccc(N(C)C)cc2)c2cc([N+](=O)[O-])ccc2Cl)cc1 [AL082D06] |  |  |  |  | effect on GR chromatin binding (fbound) [2]: decrease in chromatin binding
3 | CC(O)c1cc(C(=O)N[C@@H](C)Cn2ccc(-c3ccc(C#N)c(Cl)c3)n2)[nH]n1 (some centres unmarked) [Darolutamide] |  |  |  |  | effect on AR chromatin binding (fbound) (androgen receptor (AR)): decrease in chromatin binding
4 | COc1cccc(-c2cc(F)ccc2[C@H]2Cc3nc(N)nc(C)c3C(=O)N2)n1 [HSP990] | increase in fbound | 17.5 | plateau after an hour | two | 
5 | C[C@]12CC[C@@H]3c4ccc(O)cc4C[C@@H](CCCCCCCCC[S+]([O-])CCCC(F)(F)C(F)(F)F)[C@H]3[C@@H]1CC[C@@H]2O (some centres unmarked) [fulvestrant] |  |  |  |  | change in ER fbound, bioactive screen (Estrogen Receptor (ER) [1]; 1 μM compound versus DMSO, 5,067-molecule screen): caused an increase in fbound; also recorded: significantly increased fbound; ER degradation by western blot (ER): leads to the degradation of ER
6 | CC(C)c1cc(-c2n[nH]c(=O)n2-c2ccc3c(ccn3C)c2)c(O)cc1O [ganetespib] | increase in fbound | 19.3 | plateau after an hour | four | 
